Assay results: ChEMBL document CHEMBL4339212, “Novel 7-formyl-naphthyridyl-ureas derivatives as potential selective FGFR4 inhibitors: Design, synthesis, and biological activity studies” (Bioorg Med Chem, 2019)

Tests used:
[1] = target: Tyrosine-protein kinase JAK2 (Homo sapiens, UniProt O60674); assay: Inhibition of JAK2 (unknown origin)
[2] = target: Insulin receptor (Homo sapiens, UniProt P06213); assay: Inhibition of INSR (unknown origin)
[3] = Toxicity in female BALB/c mouse assessed as effect on body weight at 50 to 450 mg/kg/day, ig dosed once daily for 4 weeks followed by rehabilitation for another 28 days; assay type: organism-based; details: in vivo, po, 672 h
[4] = target: Receptor tyrosine-protein kinase erbB-4 (Homo sapiens, UniProt Q15303); assay: Inhibition of HER4 (unknown origin)
[5] = AUC in Sprague-Dawley rat at 5 mg/kg, ig measured after 5 mins to 24 hrs by LC-MS analysis; assay type: ADME, organism-based; set-up: dose 5 mg/kg, time 0.083-24 hr, route […]; details: in vivo, po
[6] = tested on: Hep 3B2; assay: Antitumor activity against human Hep3B cells xenografted in nude BALB/c mouse assessed as inhibition of tumor growth at 10 mg/kg bid for 14 days and measured twice per week relative to untreated control; assay type: functional; details: 336 h, read-out: TGI
[7] = Toxicity in male BALB/c mouse at 200 to 2000 mg/kg, ig administered as single dose measured after 14 days; assay type: organism-based; details: in vivo, po
[8] = Toxicity in male BALB/c mouse assessed as effect on body weight at 50 to 450 mg/kg/day, ig dosed once daily for 4 weeks followed by rehabilitation for another 28 days; assay type: organism-based; details: in vivo, po, 672 h
[9] = target: Muscle, skeletal receptor tyrosine-protein kinase (Homo sapiens, UniProt O15146); assay: Inhibition of MUSK (unknown origin)
[10] = target: Vascular endothelial growth factor receptor 3 (Homo sapiens, UniProt P35916); assay: Inhibition of FLT4 (unknown origin)
[11] = target: Insulin-like growth factor 1 receptor (Homo sapiens, UniProt P08069); assay: Inhibition of IGF1R (unknown origin)
[12] = target: Vascular endothelial growth factor receptor 1 (Homo sapiens, UniProt P17948); assay: Inhibition of FLT1 (unknown origin)
[13] = target: Tyrosine-protein kinase JAK1 (Homo sapiens, UniProt P23458); assay: Inhibition of JAK1 (unknown origin)
[14] = Toxicity in female BALB/c mouse at 200 to 2000 mg/kg, ig administered as single dose measured after 14 days; assay type: organism-based; details: in vivo, po
[15] = target: Proto-oncogene tyrosine-protein kinase ROS (Homo sapiens, UniProt P08922); assay: Inhibition of ROS (unknown origin)
[16] = target: Ephrin type-B receptor 1 (Homo sapiens, UniProt P54762); assay: Inhibition of EphB1 (unknown origin)
[17] = target: Macrophage-stimulating protein receptor (Homo sapiens, UniProt Q04912); assay: Inhibition of RON (unknown origin)
[18] = target: Non-receptor tyrosine-protein kinase TYK2 (Homo sapiens, UniProt P29597); assay: Inhibition of TYK2 (unknown origin)
[19] = target: Platelet-derived growth factor receptor alpha (Homo sapiens, UniProt P16234); assay: Inhibition of PDGFRalpha (unknown origin)
[20] = target: Ephrin type-A receptor 1 (Homo sapiens, UniProt P21709); assay: Inhibition of EphA1 (unknown origin)
Sequence of Ephrin type-A receptor 1 (P21709 whole entry): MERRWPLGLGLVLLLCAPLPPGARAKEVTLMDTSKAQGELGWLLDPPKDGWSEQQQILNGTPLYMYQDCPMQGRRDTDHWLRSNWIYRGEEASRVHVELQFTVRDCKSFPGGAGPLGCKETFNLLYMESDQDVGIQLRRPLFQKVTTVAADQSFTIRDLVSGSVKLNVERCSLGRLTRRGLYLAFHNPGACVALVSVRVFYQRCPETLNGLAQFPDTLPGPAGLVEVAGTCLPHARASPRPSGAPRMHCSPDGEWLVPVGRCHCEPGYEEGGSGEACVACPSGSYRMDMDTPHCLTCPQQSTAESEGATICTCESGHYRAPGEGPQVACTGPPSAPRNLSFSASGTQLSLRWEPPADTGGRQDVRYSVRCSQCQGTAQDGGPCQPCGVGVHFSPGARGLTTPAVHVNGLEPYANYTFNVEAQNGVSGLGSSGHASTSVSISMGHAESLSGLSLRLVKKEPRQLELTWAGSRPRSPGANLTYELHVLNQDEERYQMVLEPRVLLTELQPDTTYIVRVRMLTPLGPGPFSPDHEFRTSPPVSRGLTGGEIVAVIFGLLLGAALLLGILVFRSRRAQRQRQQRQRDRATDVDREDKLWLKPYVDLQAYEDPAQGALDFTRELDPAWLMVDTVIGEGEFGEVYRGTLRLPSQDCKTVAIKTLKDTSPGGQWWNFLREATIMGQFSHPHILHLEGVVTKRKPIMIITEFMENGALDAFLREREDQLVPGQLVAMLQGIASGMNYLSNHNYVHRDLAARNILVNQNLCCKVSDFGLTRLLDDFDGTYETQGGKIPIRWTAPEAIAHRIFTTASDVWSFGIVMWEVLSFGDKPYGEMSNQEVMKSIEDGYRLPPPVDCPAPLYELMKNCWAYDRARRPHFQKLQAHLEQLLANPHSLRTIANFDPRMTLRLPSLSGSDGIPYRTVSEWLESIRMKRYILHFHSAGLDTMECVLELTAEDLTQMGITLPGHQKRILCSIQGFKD

[21] = tested on: Huh-7; assay: Antitumor activity against human HuH7 cells xenografted in nude BALB/c mouse assessed as inhibition of tumor growth at 30 mg/kg bid for 14 days and measured twice per week relative to untreated control; assay type: functional; details: Huh-7, 336 h, read-out: TGI
[22] = target: High affinity nerve growth factor receptor (Homo sapiens, UniProt P04629); assay: Inhibition of TRKA (unknown origin)
[23] = target: Fibroblast growth factor receptor 1 (Homo sapiens, UniProt P11362); assay: Inhibition of FGFR1 (unknown origin)
[24] = target: Fibroblast growth factor receptor 2 (Homo sapiens, UniProt P21802); assay: Inhibition of FGFR2 (unknown origin)
[25] = target: Angiopoietin-1 receptor (Homo sapiens, UniProt Q02763); assay: Inhibition of TIE2 (unknown origin)
[26] = target: Proto-oncogene tyrosine-protein kinase receptor Ret (Homo sapiens, UniProt P07949); assay: Inhibition of RET (unknown origin)
[27] = target: Hepatocyte growth factor receptor (Homo sapiens, UniProt P08581); assay: Inhibition of MET (unknown origin)
Sequence of Hepatocyte growth factor receptor (P08581 whole entry): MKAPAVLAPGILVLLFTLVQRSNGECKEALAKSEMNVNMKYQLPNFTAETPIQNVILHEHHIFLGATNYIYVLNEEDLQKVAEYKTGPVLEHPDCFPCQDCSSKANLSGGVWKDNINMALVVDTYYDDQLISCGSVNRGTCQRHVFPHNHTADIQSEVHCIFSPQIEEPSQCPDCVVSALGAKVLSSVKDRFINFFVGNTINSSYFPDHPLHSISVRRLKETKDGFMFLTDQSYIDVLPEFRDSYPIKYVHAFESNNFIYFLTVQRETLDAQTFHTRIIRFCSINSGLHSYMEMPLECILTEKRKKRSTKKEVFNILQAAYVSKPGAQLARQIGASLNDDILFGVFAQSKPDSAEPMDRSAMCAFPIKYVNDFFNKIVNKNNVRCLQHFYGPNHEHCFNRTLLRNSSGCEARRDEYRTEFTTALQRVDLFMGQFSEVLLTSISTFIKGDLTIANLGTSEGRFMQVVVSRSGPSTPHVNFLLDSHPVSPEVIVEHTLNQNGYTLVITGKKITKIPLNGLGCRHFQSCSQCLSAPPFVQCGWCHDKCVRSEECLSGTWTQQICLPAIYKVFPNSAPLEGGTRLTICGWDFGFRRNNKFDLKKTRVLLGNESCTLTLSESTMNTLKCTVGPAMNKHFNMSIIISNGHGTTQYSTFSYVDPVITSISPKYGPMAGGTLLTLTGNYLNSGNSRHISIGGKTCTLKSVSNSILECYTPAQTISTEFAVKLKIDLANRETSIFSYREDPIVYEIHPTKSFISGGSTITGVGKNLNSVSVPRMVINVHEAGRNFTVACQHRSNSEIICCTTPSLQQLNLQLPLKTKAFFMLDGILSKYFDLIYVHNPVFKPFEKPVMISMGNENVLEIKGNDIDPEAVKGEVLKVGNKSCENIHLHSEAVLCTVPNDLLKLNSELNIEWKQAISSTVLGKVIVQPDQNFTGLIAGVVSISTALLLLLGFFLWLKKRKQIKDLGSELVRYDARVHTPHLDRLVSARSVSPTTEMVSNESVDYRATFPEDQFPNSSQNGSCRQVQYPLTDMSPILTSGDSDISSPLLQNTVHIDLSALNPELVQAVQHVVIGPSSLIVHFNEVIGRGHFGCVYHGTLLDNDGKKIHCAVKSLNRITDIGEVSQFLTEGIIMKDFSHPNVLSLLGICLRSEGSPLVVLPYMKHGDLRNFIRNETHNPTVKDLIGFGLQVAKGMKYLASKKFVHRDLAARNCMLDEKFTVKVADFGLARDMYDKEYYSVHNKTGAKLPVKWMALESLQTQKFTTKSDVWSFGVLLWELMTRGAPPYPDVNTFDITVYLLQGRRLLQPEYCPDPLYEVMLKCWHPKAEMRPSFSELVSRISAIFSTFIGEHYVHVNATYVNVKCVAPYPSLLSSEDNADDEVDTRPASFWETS

[28] = Toxicity in female BALB/c mouse assessed as induction of animal death at 450 mg/kg/day, ig dosed once daily for 4 weeks followed by rehabilitation for another 28 days; assay type: organism-based; details: in vivo, po, 672 h
[29] = tested on: Hep 3B2; assay: cells; details: Homo sapiens, Hep3B, 72 h
[30] = target: Tyrosine-protein kinase JAK3 (Homo sapiens, UniProt P52333); assay: Inhibition of JAK3 (unknown origin)
Sequence of Tyrosine-protein kinase JAK3 (P52333 whole entry): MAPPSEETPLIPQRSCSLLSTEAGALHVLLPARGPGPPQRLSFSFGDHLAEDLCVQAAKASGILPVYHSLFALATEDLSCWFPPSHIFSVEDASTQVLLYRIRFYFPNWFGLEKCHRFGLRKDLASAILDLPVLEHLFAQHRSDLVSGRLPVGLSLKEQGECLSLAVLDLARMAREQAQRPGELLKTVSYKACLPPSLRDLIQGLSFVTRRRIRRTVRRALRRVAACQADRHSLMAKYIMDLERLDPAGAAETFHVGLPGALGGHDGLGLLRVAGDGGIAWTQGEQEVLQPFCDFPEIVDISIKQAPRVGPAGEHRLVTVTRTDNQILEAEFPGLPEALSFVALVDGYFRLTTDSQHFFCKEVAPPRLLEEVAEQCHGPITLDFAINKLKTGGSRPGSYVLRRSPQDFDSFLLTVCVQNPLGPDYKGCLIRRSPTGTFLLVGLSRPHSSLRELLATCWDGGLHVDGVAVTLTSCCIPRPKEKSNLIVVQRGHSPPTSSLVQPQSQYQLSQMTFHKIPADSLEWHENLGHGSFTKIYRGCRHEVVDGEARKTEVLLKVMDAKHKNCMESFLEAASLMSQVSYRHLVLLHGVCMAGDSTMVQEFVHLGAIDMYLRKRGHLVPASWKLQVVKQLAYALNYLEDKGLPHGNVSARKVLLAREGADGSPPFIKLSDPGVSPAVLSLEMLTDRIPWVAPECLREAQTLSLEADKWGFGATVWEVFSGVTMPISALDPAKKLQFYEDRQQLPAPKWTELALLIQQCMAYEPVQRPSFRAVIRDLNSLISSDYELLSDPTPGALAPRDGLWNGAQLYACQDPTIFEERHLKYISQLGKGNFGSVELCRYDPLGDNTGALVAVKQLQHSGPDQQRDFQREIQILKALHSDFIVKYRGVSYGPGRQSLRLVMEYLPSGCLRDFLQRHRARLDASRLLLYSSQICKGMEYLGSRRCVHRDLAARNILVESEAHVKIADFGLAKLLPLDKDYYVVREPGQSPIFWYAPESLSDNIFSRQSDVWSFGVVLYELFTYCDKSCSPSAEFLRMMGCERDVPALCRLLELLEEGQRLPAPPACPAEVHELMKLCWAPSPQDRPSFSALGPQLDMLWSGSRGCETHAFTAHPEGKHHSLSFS

[31] = target: Mast/stem cell growth factor receptor Kit (Homo sapiens, UniProt P10721); assay: Inhibition of C-KIT (unknown origin)
[32] = tested on: Hep 3B2; assay: Antitumor activity against human Hep3B cells xenografted in nude BALB/c mouse assessed as inhibition of tumor growth at 30 mg/kg bid for 14 days and measured twice per week relative to untreated control; assay type: functional; details: 336 h, read-out: TGI
[33] = target: Receptor tyrosine-protein kinase erbB-2 (Homo sapiens, UniProt P04626); assay: Inhibition of HER2 (unknown origin)
[34] = target: ALK tyrosine kinase receptor (Homo sapiens, UniProt Q9UM73); assay: Inhibition of ALK (unknown origin)
[35] = tested on: SK-HEP1; assay: Antiproliferative activity against human SKHEP1 cells without FGFR4 gene amplification assessed as inhibition of cell proliferation incubated for 72 hrs by CellTiter-Glo method; assay type: functional, cell-based; details: SK-HEP1, 72 h
[36] = tested on: Huh-7; assay: cells; details: Homo sapiens, Huh-7, 72 h
[37] = target: Vascular endothelial growth factor receptor 2 (Homo sapiens, UniProt P35968); assay: Inhibition of KDR (unknown origin)
[38] = target: Platelet-derived growth factor receptor beta (Homo sapiens, UniProt P09619); assay: Inhibition of PDGFRbeta (unknown origin)
[39] = target: Tyrosine-protein kinase SYK (Homo sapiens, UniProt P43405); assay: Inhibition of SYK (unknown origin)
[40] = Toxicity in male BALB/c mouse assessed as effect on clinical pathology parameters at 200 to 2000 mg/kg, ig administered as single dose measured after 14 days; assay type: organism-based; details: in vivo, po, 336 h
[41] = target: Tyrosine-protein kinase ZAP-70 (Homo sapiens, UniProt P43403); assay: Inhibition of ZAP70 (unknown origin)
[42] = target: Fibroblast growth factor receptor 3 (Homo sapiens, UniProt P22607); assay: Inhibition of FGFR3 (unknown origin)
[43] = Toxicity in female BALB/c mouse at 50 to 450 mg/kg/day, ig dosed once daily for 4 weeks followed by rehabilitation for another 28 days; assay type: organism-based; details: in vivo, po
[44] = target: MAP kinase-activated protein kinase 3 (Homo sapiens, UniProt Q16644); assay: Inhibition of MAPKAPK3 (unknown origin)
Sequence of MAP kinase-activated protein kinase 3 (Q16644 whole entry): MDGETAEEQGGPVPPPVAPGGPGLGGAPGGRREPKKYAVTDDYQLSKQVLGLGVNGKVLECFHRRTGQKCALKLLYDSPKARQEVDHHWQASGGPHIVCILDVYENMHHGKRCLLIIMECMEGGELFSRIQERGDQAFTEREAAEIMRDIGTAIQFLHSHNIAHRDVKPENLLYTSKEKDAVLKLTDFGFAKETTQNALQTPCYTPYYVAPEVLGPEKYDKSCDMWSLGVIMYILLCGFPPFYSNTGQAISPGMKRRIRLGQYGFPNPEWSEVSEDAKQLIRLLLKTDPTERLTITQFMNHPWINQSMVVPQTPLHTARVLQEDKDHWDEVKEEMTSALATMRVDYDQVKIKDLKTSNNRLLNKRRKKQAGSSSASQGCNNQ

[45] = tested on: Huh-7; assay: Antitumor activity against human HuH7 cells xenografted in nude BALB/c mouse assessed as inhibition of tumor growth at 100 mg/kg bid for 14 days and measured twice per week relative to untreated control; assay type: functional; details: Huh-7, 336 h, read-out: TGI

Sequence of Tyrosine-protein kinase JAK2 (O60674 whole entry): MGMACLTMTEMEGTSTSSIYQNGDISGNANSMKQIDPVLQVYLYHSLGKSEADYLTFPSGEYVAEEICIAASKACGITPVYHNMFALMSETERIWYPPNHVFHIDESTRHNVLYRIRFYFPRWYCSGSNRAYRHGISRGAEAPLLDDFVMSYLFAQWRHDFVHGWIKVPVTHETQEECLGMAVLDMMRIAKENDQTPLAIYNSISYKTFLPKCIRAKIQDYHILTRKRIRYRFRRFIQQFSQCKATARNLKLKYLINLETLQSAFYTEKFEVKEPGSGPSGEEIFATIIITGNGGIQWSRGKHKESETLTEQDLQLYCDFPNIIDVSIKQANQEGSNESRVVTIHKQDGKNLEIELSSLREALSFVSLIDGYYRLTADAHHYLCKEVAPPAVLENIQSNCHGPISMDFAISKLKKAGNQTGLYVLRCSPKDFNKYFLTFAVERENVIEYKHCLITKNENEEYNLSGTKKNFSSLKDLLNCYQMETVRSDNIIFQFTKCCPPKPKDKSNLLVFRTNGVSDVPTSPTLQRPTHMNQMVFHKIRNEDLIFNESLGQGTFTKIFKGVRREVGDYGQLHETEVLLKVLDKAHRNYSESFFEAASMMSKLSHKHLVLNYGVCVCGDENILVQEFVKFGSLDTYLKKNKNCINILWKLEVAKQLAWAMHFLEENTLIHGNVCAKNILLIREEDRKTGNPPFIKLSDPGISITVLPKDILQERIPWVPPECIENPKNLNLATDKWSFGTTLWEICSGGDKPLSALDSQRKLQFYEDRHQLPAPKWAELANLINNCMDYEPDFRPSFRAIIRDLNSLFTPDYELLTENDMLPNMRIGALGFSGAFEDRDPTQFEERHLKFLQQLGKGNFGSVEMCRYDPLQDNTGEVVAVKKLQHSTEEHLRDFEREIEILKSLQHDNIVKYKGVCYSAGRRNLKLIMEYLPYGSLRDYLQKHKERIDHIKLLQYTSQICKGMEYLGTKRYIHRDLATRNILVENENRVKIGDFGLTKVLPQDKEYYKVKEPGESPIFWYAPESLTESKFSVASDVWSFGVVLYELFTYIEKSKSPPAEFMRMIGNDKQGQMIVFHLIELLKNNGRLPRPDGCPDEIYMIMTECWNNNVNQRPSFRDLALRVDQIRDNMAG

COC[C@@H](C)Nc1cc(NC(=O)N2CCCc3cc(CN4CCCCOC4=O)c(C=O)nc32)ncc1C#N
IC50 [1]: > 10 µM
IC50 [2]: > 10 µM
Activity [3]: Non-Toxic
IC50 [4]: > 10 µM
AUC [5]: 9460 ng·h/mL
inhibition in vivo at 10 mg/kg [6]: 126%
NOAEL at 336 h [7]: 2000 mg/kg/day
Activity [8]: Non-Toxic
IC50 [9]: > 10 µM
IC50 [10]: > 10 µM
IC50 [11]: > 10 µM
IC50 [12]: > 10 µM
IC50 [13]: > 10 µM
NOAEL at 336 h [14]: 2000 mg/kg/day
IC50 [15]: > 10 µM
IC50 [16]: > 10 µM
IC50 [17]: > 10 µM
IC50 [18]: > 10 µM
IC50 [19]: > 10 µM
IC50 [20]: > 10 µM
inhibition in vivo at 30 mg/kg [21]: 62.7%
IC50 [22]: > 10 µM
IC50 [23]: > 10 µM
IC50 [24]: > 10 µM
IC50 [25]: > 10 µM
IC50 [26]: > 10 µM
IC50 [27]: > 10 µM
Activity [28]: Toxic
IC50 [29]: 0.0011 µM
IC50 [30]: > 10 µM
IC50 [31]: > 10 µM
inhibition in vivo at 30 mg/kg [32]: 165%
IC50 [33]: > 10 µM
IC50 [34]: > 10 µM
IC50 [35]: > 10 µM
IC50 [36]: 0.0025 µM
IC50 [37]: > 10 µM
IC50 [38]: > 10 µM
IC50 [39]: > 10 µM
Activity [40]: Non-Toxic
IC50 [41]: > 10 µM
IC50 [42]: > 10 µM
NOAEL at 672 h [43]: 150 mg/kg
IC50 [44]: > 10 µM
inhibition in vivo at 100 mg/kg [45]: 70.8%
